Measurements reported in the supplement of paper PMC10307832.

Assays:
Assay in all cases: relative viability (nuclei count vs DMSO), 5 days (fraction); higher = more cells survive
FH535 + Pictilisib = compound: CC1=C(C=CC(=C1)[N+](=O)[O-])NS(=O)(=O)C2=C(C=CC(=C2)Cl)Cl [FH535] + CS(=O)(=O)N1CCN(Cc2cc3nc(-c4cccc5[nH]ncc45)nc(N4CCOCC4)c3s2)CC1 [Pictilisib] (partner 1 µM)
How it was run: (§1)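 Relative viability divides the nuclei count in treated wells by that in vehicle wells. Lung cancer cell lines were seeded in 1536-well plates, dosed by pin tool the next day, and fixed and stained after 5 days in one step with final 0.05% Triton X-100, 1% formaldehyde and 1 ug/ml Hoechst. Dosing was a single drug or a fixed anchor-drug dose plus five library-drug doses (not always all listed) in √10 steps, and values are medians of duplicate plates imaged at 4×.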

FH535 + Dasatinib = compound: CC1=C(C=CC(=C1)[N+](=O)[O-])NS(=O)(=O)C2=C(C=CC(=C2)Cl)Cl [FH535] + Cc1nc(Nc2ncc(C(=O)Nc3c(C)cccc3Cl)s2)cc(N2CCN(CCO)CC2)n1 [Dasatinib] (partner 0.075 µM)
How it was run: as §1

FH535 + Lapatinib = compound: CC1=C(C=CC(=C1)[N+](=O)[O-])NS(=O)(=O)C2=C(C=CC(=C2)Cl)Cl [FH535] + CS(=O)(=O)CCNCc1ccc(-c2ccc3ncnc(Nc4ccc(OCc5cccc(F)c5)c(Cl)c4)c3c2)o1 [Lapatinib] (partner 2 µM)
How it was run: as §1

FH535 + Phenformin = compound: CC1=C(C=CC(=C1)[N+](=O)[O-])NS(=O)(=O)C2=C(C=CC(=C2)Cl)Cl [FH535] + N=C(N)NC(=N)NCCc1ccccc1 [Phenformin] (partner 250 µM)
How it was run: as §1

FH535 + Alpelisib = compound: CC1=C(C=CC(=C1)[N+](=O)[O-])NS(=O)(=O)C2=C(C=CC(=C2)Cl)Cl [FH535] + Cc1nc(NC(=O)N2CCC[C@H]2C(N)=O)sc1-c1ccnc(C(C)(C)C(F)(F)F)c1 [Alpelisib] (partner 2 µM)
How it was run: as §1

| Cell Line | relative viability (FH535 + Pictilisib; first compound 0.04 µM) | relative viability (FH535 + Pictilisib; first compound 0.1265 µM) | relative viability (FH535 + Pictilisib; first compound 0.4 µM) | relative viability (FH535 + Pictilisib; first compound 1.265 µM) | relative viability (FH535 + Dasatinib; first compound 0.04 µM) | relative viability (FH535 + Dasatinib; first compound 0.1265 µM) | relative viability (FH535 + Dasatinib; first compound 0.4 µM) | relative viability (FH535 + Dasatinib; first compound 1.265 µM) | relative viability (FH535 + Lapatinib; first compound 0.04 µM) | relative viability (FH535 + Lapatinib; first compound 0.1265 µM) | relative viability (FH535 + Lapatinib; first compound 0.4 µM) | relative viability (FH535 + Lapatinib; first compound 1.265 µM) | relative viability (FH535 + Phenformin; first compound 0.04 µM) | relative viability (FH535 + Phenformin; first compound 0.1265 µM) | relative viability (FH535 + Phenformin; first compound 0.4 µM) | relative viability (FH535 + Phenformin; first compound 1.265 µM) | relative viability (FH535 + Alpelisib; first compound 0.04 µM) | relative viability (FH535 + Alpelisib; first compound 0.1265 µM) | relative viability (FH535 + Alpelisib; first compound 0.4 µM) | relative viability (FH535 + Alpelisib; first compound 1.265 µM) |
| --- | --- | --- | --- | --- | --- | --- | --- | --- | --- | --- | --- | --- | --- | --- | --- | --- | --- | --- | --- | --- |
| NCI-H358 | 0.326 | 0.338 | 0.247 | 0.271 | 0.141 | 0.15 | 0.159 | 0.143 | 0.406 | 0.422 | 0.441 | 0.388 | 0.256 | 0.327 | 0.265 | 0.153 | 0.919 | 0.929 | 0.84 | 0.643 |
| NCI-H460 | 0.344 | 0.338 | 0.335 | 0.329 | 0.356 | 0.546 | 0.452 | 0.337 | 0.992 | 1.08 | 1 | 0.575 | 0.517 | 0.535 | 0.399 | 0.244 | 0.388 | 0.601 | 0.51 | 0.449 |
| NCI-H520 | 0.274 | 0.201 | 0.303 | 0.279 | 0.203 | 0.193 | 0.2 | 0.19 | 0.848 | 0.768 | 0.818 | 0.761 | 0.36 | 0.611 | 0.55 | 0.429 | 0.825 | 0.931 | 0.952 | 0.799 |
| NCI-H596 | 0.347 | 0.385 | 0.39 | 0.344 | 0.673 | 0.574 | 0.604 | 0.55 | 1.06 | 1.03 | 0.985 | 0.94 | 0.794 | 0.623 | 0.614 | 0.69 | 0.527 | 0.487 | 0.481 | 0.487 |
| NCI-H647 | 0.435 | 0.458 | 0.434 | 0.362 | 0.183 | 0.193 | 0.129 | 0.152 | 0.971 | 1.08 | 0.914 | 0.864 | 0.524 | 0.508 | 0.431 | 0.42 | 1.18 | 1.41 | 1.14 | 0.935 |
| NCI-H650 | 0.766 | 0.972 | 0.959 | 0.643 | 0.4 | 0.462 | 0.429 | 0.309 | 0.718 | 0.886 | 0.703 | 0.68 | 0.411 | 0.417 | 0.388 | 0.289 | 0.975 | 1.06 | 1.12 | 0.774 |
| NCI-H661 | 0.473 | 0.381 | 0.392 | 0.536 | 0.704 | 0.994 | 0.615 | 0.475 | 0.452 | 0.456 | 0.461 | 0.344 | 0.302 | 0.294 | 0.276 | 0.234 | 0.607 | 0.55 | 0.518 | 0.374 |
| NCI-H727 | 0.482 | 0.315 | 0.401 | 0.366 | 0.405 | 0.434 | 0.364 | 0.402 | 0.85 | 0.628 | 0.727 | 0.665 | 0.56 | 0.509 | 0.363 | 0.305 | 0.542 | 0.523 | 0.518 | 0.533 |
| NCI-H838 | 0.462 | 0.427 | 0.379 | 0.387 | 0.276 | 0.291 | 0.284 | 0.269 | 0.971 | 0.873 | 0.795 | 0.734 | 0.512 | 0.722 | 0.445 | 0.309 | 0.917 | 1.06 | 0.962 | 0.765 |
| NCI-H1355 | 0.362 | 0.503 | 0.378 | 0.33 | 0.723 | 0.692 | 0.57 | 0.605 | 0.92 | 1.01 | 0.933 | 0.883 | 0.425 | 0.42 | 0.353 | 0.269 | 0.786 | 0.87 | 0.818 | 0.401 |
| NCI-H1395 | 0.583 | 0.645 | 0.64 | 0.541 | 0.361 | 0.402 | 0.413 | 0.344 | 0.768 | 0.968 | 0.964 | 0.555 | 0.443 | 0.448 | 0.396 | 0.348 | 0.847 | 1.09 | 1.1 | 0.84 |
| NCI-H1437 | 0.456 | 0.375 | 0.427 | 0.323 | 0.372 | 0.405 | 0.184 | 0.109 | 0.731 | 0.534 | 0.631 | 0.349 | 0.289 | 0.309 | 0.29 | 0.171 | 0.982 | 0.968 | 0.897 | 0.468 |
| NCI-H1563 | 0.631 | 0.657 | 0.627 | 0.637 | 0.445 | 0.495 | 0.508 | 0.435 | 0.737 | 0.959 | 0.898 | 0.864 | 0.665 | 0.669 | 0.644 | 0.563 | 0.89 | 0.931 | 0.981 | 0.837 |
| NCI-H1651 | 0.572 | 0.504 | 0.562 | 0.509 | 0.397 | 0.419 | 0.284 | 0.201 | 0.815 | 0.729 | 0.731 | 0.669 | 0.318 | 0.319 | 0.221 | 0.188 | 1 | 1.07 | 1.04 | 0.69 |
| NCI-H1666 | 0.481 | 0.443 | 0.404 | 0.4 | 0.833 | 0.85 | 0.716 | 0.64 | 0.601 | 0.623 | 0.634 | 0.421 | 0.582 | 0.513 | 0.476 | 0.373 | 1.04 | 0.956 | 1.01 | 0.693 |
